Patent EP0872233A1, “Antiretroviral compositions with improved bioavailability” (JANSSEN PHARMACEUTICA N.V., priority 1997, dated 1998)

Tests used:
[1] = thermal stability at melt-extrusion temperatures; assay type: physicochemical; conditions: temperatures up to 300°C
Description: One of the most important parameters of melt extrusion is the temperature at which the melt-extruder is operating. […] At temperatures lower than 120°C, loviride will not dissolve sufficiently in most water-soluble polymers and the extrudate will not have the required bioavailability. In addition, the process is difficult because of the high viscosity of the mixture. At temperatures of more than 300°C the water-soluble polymer may decompose to an unacceptable level.

solubility in water = assay type: physicochemical; conditions: room temperature, pH of 6.5, racemic free base
[2] = in vivo
[3] = parameters: AUClast: dose or concentration left out as unconfirmed; conditions: for Cmax: human, in vivo, po, 100 mg
Description: In this study 12 healthy volunteers in fasting conditions were administered a tablet of example 1 (100 mg loviride). Plasma levels of each of the loviride enantiomers were determined and the following bioavailability data were calculated therefrom.

Row | SMILES | thermal stability [1] | solubility (solubility in water) | half-life [2] | AUClast [3] | Cmax [3] [ng/mL]
1 | CC(=O)c1ccc(C)cc1NC(C(N)=O)c1c(Cl)cccc1Cl (racemic) [loviride, (±)-α-[(2-acetyl-5-methylphenyl)amino]-2,6-dichlorobenzeneacetamide] | thermally very stable | less than 0.1 mg/100ml | short |  | 
2 | CC(=O)c1ccc(C)cc1NC(C(N)=O)c1c(Cl)cccc1Cl (single isomer, unassigned; (+)) [(+)-loviride] |  |  |  | 18,180 ± 7,197 ng.h/ml | 890 ± 292
3 | CC(=O)c1ccc(C)cc1NC(C(N)=O)c1c(Cl)cccc1Cl (single isomer, unassigned; (-)) [(-)-loviride] |  |  |  | 1,347 ± 512 ng.h/ml | 155 ± 66
